Source: patent US7799809B2, “Carboxamide compounds and their use as calpain inhibitors” (Abbott GmbH & Co. KG, priority 2006, dated 2010)

What was measured:
Type in all cases: biochemical
cathepsin B = biological target: T1, cathepsin B (Homo sapiens, UniProt P07858); experiment: Cathepsin B enzyme inhibition in vitro (kinetic fluorescence assay); details: cathepsin B isolated from human liver vs calpain I
T1 construct: cathepsin B—isolated from human liver (Calbiochem #219362); purchased Calbiochem 219362; host or cells: human liver (tissue-derived)
Procedure: (§1) The following solutions and buffers were employed: • HBS (for 40 ml): 800 μl M HEPES; 2.16 ml 100 mM KCl; 4.8 ml 1M NaCl; 3.59 ml 5% glucose; 60 μl μM MgSO4; 400 μl 100 mM Na pyruvate, 28.19 ml water; pH 7.2-7.5. • lysis buffer (for 20 ml): 400 μl M Tris pH 8.2; 2.74 ml 1M NaCl; 520 μl 0.5M EDTA; 2 ml 10% triton X-100; 0.8 ml (=1:25) CompletePlus (1 tablet/2 ml H2O); 200 μl 100 mM Pefabloc; 13.34 ml water, pH 8.2. • TBST (10×) (for 1 l): 100 mM Tris (12.1 g); 1.5M NaCl (87 g); 1% Tween 20 (10 g), adjusted to pH 8. I Enzyme Inhibition In Vitro: • Testing for blockade of the corresponding enzymic activities was carried out by means of kinetic fluorescence assays (excitation 390 nm, emission 460 nm). • Apparent Ki values were calculated from the experimentally determined IC50 values by the Cheng-Prussoff relation assuming a reversible competitive enzyme inhibition. The Km values of the substrates used under the assay conditions indicated above were: 90 μM (Z-Phe-Arg-AMC, cathepsin B), 10 μM (Z-Gly-Pro-Arg-AMC, cathepsin K), 2 μM (Z-Phe-Arg-AMC, cathepsin L), and 30 μM (Z-Val-Val-Arg-AMC, cathepsin S). • The indicated Ki values are averages of the inhibition constants calculated on the basis of 2 to 4 independent dose-effect plots.
(§2) The following assays were used: • 1. Calpain I: • 20 nM calpain-I—isolated from human erythrocytes (Calbiochem #208713), 100 μM Suc-Leu-Tyr-AMC (Bachem #1-1355) as substrate in buffer with 62 mM imidazole, 0.3 mM CaCl2, 0.10% CHAPS, 0.05% BSA, 1 mM DTT at pH 7.3 and room temperature. • 2. Cathepsin B: • 0.25 nM cathepsin B—isolated from human liver (Calbiochem #219362), 100 μM Z-Phe-Arg-AMC (Bachem #I-1160) as substrate 50 mM MES, 2 mM EDTA, 0.05% Brij 35, 2.5 mM L-cysteine, pH 6.0, room temperature. • 3. Cathepsin K: • 3 nM cathepsin K—activated from recombinant human procathepsin K from E. coli (Calbiochem #342001), 10 μM Z-Gly-Pro-Arg-AMC (Biomol #P-142) as substrate in 50 mM MES, 2 mM EDTA, 0.05% Brij 35, 2.5 mM L-cysteine, pH 6.0, room temperature. • 4. Cathepsin L: • 1 nM cathepsin L—isolated from human liver (Calbiochem #219402), 2 μM Z-Phe-Arg-AMC (Bachem #1-1160) as substrate in 50 mM MES, 2 mM EDTA, 0.05% Brij 35, 2.5 mM L-cysteine, pH 6.0, room temperature. • 5. Cathepsin S: • 0.5 nM recombinant human cathepsin S from E. coli (Calbiochem #219343), 20 μM Z-Val-Val-Arg-AMC (Bachem #1-1540) as substrate in 50 mM MES, 2 mM EDTA, 0.05% Brij 35, 2.5 mM L-cysteine, pH 6.0, room temperature. • The results of the in vitro determination are indicated in Table 1. The following abbreviations are used in Table 1: • The “Calpain activity” column, ++ stands for a calpain Ki (Ki(calpain)) of ≦40 nM and + means: 40 nM<Ki(Calpain)≦100 nM. • The “Sel. cat. B” column indicates the Ki(cathepsin B)/Ki(calpain) ratio. In this connection, ++ means a Ki(cathepsin B)/Ki(calpain) ratio of ≧30 and + means 10≦Ki(cathepsin B)/Ki(calpain)<30. • The “Sel. cat. K” column indicates the Ki(cathepsin K)/Ki(calpain) ratio. In this connection, ++ means a Ki(cathepsin K)/Ki(calpain) ratio of ≧30 and + means 10≦Ki(cathepsin K)/Ki(calpain)<30. • The “Sel. cat. L” column indicates the Ki(cathepsin L)/Ki(calpain) ratio. In this connection, ++ means a Ki(cathepsin L)/Ki(calpain) ratio of ≧50 and + means 30≦Ki(cathepsin L)/Ki(calpain)<50. • The “Sel. cat. S” column indicates the Ki(cathepsin S)/Ki(calpain) ratio. In this connection, ++ means a Ki(cathepsin S)/Ki(calpain) ratio of ≧100 and + means 50≦Ki(cathepsin S)/Ki(calpain)<100.

cathepsin K = biological target: T2, cathepsin K (Homo sapiens, UniProt P43235); experiment: Cathepsin K enzyme inhibition in vitro (kinetic fluorescence assay); details: cathepsin K activated from recombinant human procathepsin K vs calpain I
T2 construct: purchased Calbiochem 342001; host or cells: E. coli
T2 sequence (P43235 115-329): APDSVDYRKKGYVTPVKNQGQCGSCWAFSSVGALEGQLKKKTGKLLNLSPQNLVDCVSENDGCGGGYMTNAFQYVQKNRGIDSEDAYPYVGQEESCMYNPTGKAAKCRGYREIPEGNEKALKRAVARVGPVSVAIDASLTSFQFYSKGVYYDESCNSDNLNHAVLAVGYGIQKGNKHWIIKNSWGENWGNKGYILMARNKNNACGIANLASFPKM
Procedure: as §1, §2

cathepsin L = biological target: T3, cathepsin L (Homo sapiens, UniProt P07711); experiment: Cathepsin L enzyme inhibition in vitro (kinetic fluorescence assay); details: cathepsin L isolated from human liver vs calpain I
T3 construct: cathepsin L—isolated from human liver (Calbiochem #219402); purchased Calbiochem 219402; host or cells: human liver (tissue-derived)
T3 sequence (P07711 114-333): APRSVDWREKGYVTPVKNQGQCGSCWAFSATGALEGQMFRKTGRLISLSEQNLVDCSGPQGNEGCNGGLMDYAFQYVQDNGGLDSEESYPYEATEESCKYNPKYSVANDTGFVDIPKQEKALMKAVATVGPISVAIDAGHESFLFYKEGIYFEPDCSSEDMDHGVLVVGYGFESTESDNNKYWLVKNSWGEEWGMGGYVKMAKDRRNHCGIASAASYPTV
In short: (§3)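 Cathepsin B (0.25 nM, human liver) with 100 μM Z-Phe-Arg-AMC; L (1 nM, human liver) with 2 μM Z-Phe-Arg-AMC; S (0.5 nM, recombinant) with 20 μM Z-Val-Val-Arg-AMC. pH 6.0 MES buffer, 2.5 mM L-cysteine, room temperature. Kinetic fluorescence (ex 390/em 460 nm); apparent Ki from IC50 by Cheng-Prusoff.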

cathepsin S = biological target: T4, cathepsin S (Homo sapiens, UniProt P25774); experiment: Cathepsin S enzyme inhibition in vitro (kinetic fluorescence assay); details: recombinant human cathepsin S vs calpain I
T4 construct: purchased Calbiochem 219343; host or cells: E. coli
T4 sequence (P25774 115-331): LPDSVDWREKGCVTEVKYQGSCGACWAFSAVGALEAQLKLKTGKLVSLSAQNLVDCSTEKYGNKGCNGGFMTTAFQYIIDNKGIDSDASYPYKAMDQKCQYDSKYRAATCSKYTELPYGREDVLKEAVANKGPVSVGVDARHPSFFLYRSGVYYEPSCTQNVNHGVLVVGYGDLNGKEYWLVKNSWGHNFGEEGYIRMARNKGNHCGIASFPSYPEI
In short: as §3

SMILES | Sel cat. B: Ki(cathepsin B)/Ki(calpain) ratio (cathepsin B) | Sel cat. K: Ki(cathepsin K)/Ki(calpain) ratio (cathepsin K) | Sel cat. L: Ki(cathepsin L)/Ki(calpain) ratio (cathepsin L) | Sel cat. S: Ki(cathepsin S)/Ki(calpain) ratio (cathepsin S)
NC(=O)C(=O)C(Cc1ccc(Cl)cc1)NC(=O)c1cccnc1-n1ccc(-c2ccc(F)cc2)n1 (stereo not shown) [Example 67, N-[3-Amino-1-(4-chlorobenzyl)-2,3-dioxopropyl]-2-[3-(4-fluorophenyl)-1H-pyrazol-1-yl]nicotinamide] | + (+ means 10≦Ki(cathepsin B)/Ki(calpain)<30) | + (+ means 10≦Ki(cathepsin K)/Ki(calpain)<30) | ++ (++ means a Ki(cathepsin L)/Ki(calpain) ratio of ≧50) | ++ (++ means a Ki(cathepsin S)/Ki(calpain) ratio of ≧100)
NC(=O)C(=O)C(Cc1ccccc1)NC(=O)c1cccnc1-n1ccc(-c2ccc(F)cc2F)n1 (stereo not shown) [Example 94, N-[3-Amino-2,3-dioxo-1-(phenylmethyl)propyl]-2-[3-(2,4-difluorophenyl)-1H-pyrazol-1-yl]pyridine-3-carboxamide] | ++ (++ means a Ki(cathepsin B)/Ki(calpain) ratio of ≧30) | + (+ means 10≦Ki(cathepsin K)/Ki(calpain)<30) | ++ (++ means a Ki(cathepsin L)/Ki(calpain) ratio of ≧50) | ++ (++ means a Ki(cathepsin S)/Ki(calpain) ratio of ≧100)
COc1c(C)cc(C)cc1-c1ccn(-c2ncccc2C(=O)NC(Cc2ccccc2)C(=O)C(N)=O)n1 (stereo not shown) [Example 121, N-[3-Amino-2,3-dioxo-1-(phenylmethyl)propyl]-2-{3-[3,5-dimethyl-2-(methyloxy)phenyl]-1H-pyrazol-1-yl}pyridine-3-carboxamide] | ++ (++ means a Ki(cathepsin B)/Ki(calpain) ratio of ≧30) | ++ (++ means a Ki(cathepsin K)/Ki(calpain) ratio of ≧30) | ++ (++ means a Ki(cathepsin L)/Ki(calpain) ratio of ≧50) | ++ (++ means a Ki(cathepsin S)/Ki(calpain) ratio of ≧100)
COc1ccc2c(c1)-c1nn(-c3ncccc3C(=O)NC(Cc3ccccc3)C(=O)C(N)=O)cc1CO2 (stereo not shown) [Example 183, N-[3-Aamino-2,3-dioxo-1-(phenylmethyl)propyl]-2-[8-(methyloxy)chromeno[4,3-c]pyrazol-2(4H)-yl]pyridine-3-carboxamide] | + (+ means 10≦Ki(cathepsin B)/Ki(calpain)<30) | + (+ means 10≦Ki(cathepsin K)/Ki(calpain)<30) | ++ (++ means a Ki(cathepsin L)/Ki(calpain) ratio of ≧50) | ++ (++ means a Ki(cathepsin S)/Ki(calpain) ratio of ≧100)
NC(=O)C(=O)C(Cc1ccccc1)NC(=O)c1cccnc1-n1ccc(-c2sccc2Cl)n1 (stereo not shown) [Example 109, N-[3-Amino-2,3-dioxo-1-(phenylmethyl)propyl]-2-[3-(3-chloro-2-thienyl)-1H-pyrazol-1-yl]pyridine-3-carboxamide] | ++ (++ means a Ki(cathepsin B)/Ki(calpain) ratio of ≧30) | ++ (++ means a Ki(cathepsin K)/Ki(calpain) ratio of ≧30) | ++ (++ means a Ki(cathepsin L)/Ki(calpain) ratio of ≧50) | ++ (++ means a Ki(cathepsin S)/Ki(calpain) ratio of ≧100)
NC(=O)C(=O)C(Cc1ccccc1)NC(=O)c1cccnc1-n1ccc(C23CC4CC(CC(C4)C2)C3)n1 (stereo not shown) [Example 193, N-[3-Amino-2,3-dioxo-1-(phenylmethyl)propyl]-2-(3-tricyclo[3.3.1.1^3,7]dec-1-yl-1H-pyrazol-1-yl)pyridine-3-carboxamide] | ++ (++ means a Ki(cathepsin B)/Ki(calpain) ratio of ≧30) | ++ (++ means a Ki(cathepsin K)/Ki(calpain) ratio of ≧30) | ++ (++ means a Ki(cathepsin L)/Ki(calpain) ratio of ≧50) | ++ (++ means a Ki(cathepsin S)/Ki(calpain) ratio of ≧100)
NC(=O)C(=O)C(Cc1ccccc1)NC(=O)c1cccnc1-n1ccc(-c2ccc(C(F)(F)F)cc2)n1 (stereo not shown) [Example 60, N-(3-Amino-1-benzyl-2,3-dioxopropyl)-2-{3-[4-(trifluoromethyl)phenyl]-1H-pyrazol-1-yl}nicotinamide] | + (+ means 10≦Ki(cathepsin B)/Ki(calpain)<30) | + (+ means 10≦Ki(cathepsin K)/Ki(calpain)<30) | ++ (++ means a Ki(cathepsin L)/Ki(calpain) ratio of ≧50) | + (+ means 50≦Ki(cathepsin S)/Ki(calpain)<100)
NC(=O)C(=O)C(Cc1ccccc1)NC(=O)c1cc(Cl)cnc1-n1ccc(-c2ccc(N3CCOCC3)cc2)n1 (stereo not shown) [Example 31, N-(3-Amino-1-benzyl-2,3-dioxopropyl)-5-chloro-2-[3-(4-morpholin-4-ylphenyl)-1H-pyrazol-1-yl]nicotinamide] | ++ (++ means a Ki(cathepsin B)/Ki(calpain) ratio of ≧30) | + (+ means 10≦Ki(cathepsin K)/Ki(calpain)<30) | + (+ means 30≦Ki(cathepsin L)/Ki(calpain)<50) | –
NC(=O)C(=O)C(Cc1ccccc1)NC(=O)c1cc(Cl)cnc1-n1ccc(-c2ccccc2)n1 (stereo not shown) [Example 27, N-(3-Amino-1-benzyl-2,3-dioxopropyl)-5-chloro-2-(3-phenyl-1H-pyrazol-1-yl)nicotinamide] | ++ (++ means a Ki(cathepsin B)/Ki(calpain) ratio of ≧30) | + (+ means 10≦Ki(cathepsin K)/Ki(calpain)<30) | + (+ means 30≦Ki(cathepsin L)/Ki(calpain)<50) | –
